Measured values as given in ChEMBL document CHEMBL5506059, “Cyanomethylquinolones as a New Class of Potential Multitargeting Broad-Spectrum Antibacterial Agents” (J Med Chem, 2024).
Converted amounts (≈) assume the structure as drawn. The source made the active and inactive calls. The rule behind the calls is not given here.

Tests used:
Staphylococcus aureus [1] = assay: Antibacterial activity against methicillin resistant Staphylococcus aureus clinical isolate assessed as inhibition of bacterial growth incubated for 24 hrs; assay type: functional
Staphylococcus aureus [2] = assay: Antibacterial activity against Staphylococcus aureus clinical isolate assessed as inhibition of bacterial growth incubated for 24 hrs; assay type: functional
Staphylococcus aureus [3] = assay: Antibacterial activity against Staphylococcus aureus ATCC 25923 assessed as inhibition of bacterial growth incubated for 24 hrs; assay type: functional
Staphylococcus aureus [4] = assay: Antibacterial activity against Staphylococcus aureus ATCC 29213 assessed as inhibition of bacterial growth incubated for 24 hrs; assay type: functional
Enterococcus faecalis [5] = assay: Antibacterial activity against Enterococcus faecalis clinical isolate assessed as inhibition of bacterial growth incubated for 24 hrs; assay type: functional
Klebsiella pneumoniae = assay: Antibacterial activity against Klebsiella pneumoniae clinical isolate assessed as inhibition of bacterial growth incubated for 24 hrs; assay type: functional
Escherichia coli [6] = assay: Antibacterial activity against Escherichia coli clinical isolate assessed as inhibition of bacterial growth incubated for 24 hrs; assay type: functional
Escherichia coli [7] = assay: Antibacterial activity against Escherichia coli ATCC 25922 assessed as inhibition of bacterial growth incubated for 24 hrs; assay type: functional
Pseudomonas aeruginosa [8] = assay: Antibacterial activity against Pseudomonas aeruginosa clinical isolate assessed as inhibition of bacterial growth incubated for 24 hrs; assay type: functional
Pseudomonas aeruginosa [9] = assay: Antibacterial activity against Pseudomonas aeruginosa ATCC 27853 assessed as inhibition of bacterial growth incubated for 24 hrs; assay type: functional
Acinetobacter baumannii = assay: Antibacterial activity against Acinetobacter baumannii clinical isolate assessed as inhibition of bacterial growth incubated for 24 hrs; assay type: functional
Streptococcus pneumoniae = assay: Antibacterial activity against Streptococcus pneumoniae ATCC 6305 assessed as inhibition of bacterial growth incubated for 24 hrs; assay type: functional
Streptococcus pyogenes = assay: Antibacterial activity against Streptococcus pyogenes ATCC 19615 assessed as inhibition of bacterial growth incubated for 24 hrs; assay type: functional
[10] = tested on: Staphylococcus epidermidis; assay: Antibacterial activity against Staphylococcus epidermidis ATCC 12228 assessed as inhibition of bacterial growth incubated for 24 hrs; assay type: functional
Staphylococcus aureus [11] = assay: Antibacterial activity against methicillin-resistant Staphylococcus aureus ATCC 43300 assessed as inhibition of bacterial growth incubated for 24 hrs; assay type: functional
Staphylococcus aureus [12] = assay: Antibacterial activity against Staphylococcus aureus ATCC 12600 assessed as inhibition of bacterial growth incubated for 24 hrs; assay type: functional
Staphylococcus aureus [13] = assay: Antibacterial activity against Staphylococcus aureus ATCC 6538 assessed as inhibition of bacterial growth incubated for 24 hrs; assay type: functional
Staphylococcus aureus [14] = assay: Antibacterial activity against Staphylococcus aureus CMCC(B)26003 assessed as inhibition of bacterial growth incubated for 24 hrs; assay type: functional
Staphylococcus aureus [15] = assay: Antibacterial activity against Staphylococcus aureus CMCC(B)26001 assessed as inhibition of bacterial growth incubated for 24 hrs; assay type: functional
Enterococcus faecium = assay: Antibacterial activity against Enterococcus faecium ATCC 19434 assessed as inhibition of bacterial growth incubated for 24 hrs; assay type: functional
Enterococcus faecalis [16] = assay: Antibacterial activity against vancomycin-resistant Enterococcus faecalis clinical isolate p1-2007226001 assessed as inhibition of bacterial growth incubated for 24 hrs; assay type: functional
Enterococcus faecalis [17] = assay: Antibacterial activity against vancomycin-resistant Enterococcus faecalis clinical isolate p1-2007225053 assessed as inhibition of bacterial growth incubated for 24 hrs; assay type: functional
Staphylococcus aureus [18] = assay: Antibacterial activity against methicillin resistant Staphylococcus aureus clinical isolate assessed as inhibition of bacterial growth at 1 times MIC incubated under dark condition and measured upto 5 hrs relative to control; assay type: functional
Erythrocyte = assay: Hemolytic activity in human Red blood cells assessed as concentration required for 5% hemolysis measured after 1.5 hrs by absorbance based assay; assay type: toxicity, cell-based
[19] = Hemolytic activity in human Red blood cells at 256 ug/ml measured after 1.5 hrs by absorbance based assay relative to control; assay type: toxicity, cell-based, Erythrocyte; settings: red blood cells (erythrocytes), at 256 µg/mL, read-out: Activity
Staphylococcus aureus [20] = assay: Resistance development in methicillin resistant Staphylococcus aureus assessed as increase in MIC measured after 20 days; assay type: functional, organism-based; settings: time 20.0 day
Pseudomonas aeruginosa [21] = assay: Resistance development in Pseudomonas aeruginosa assessed as increase in MIC measured after 20 days; assay type: functional, organism-based; settings: time 20.0 day
Staphylococcus aureus [22] = assay: Antibiofilm activity in methicillin resistant Staphylococcus aureus assessed as biofilm eradication measured after 24 hrs by crystal violet staining based analysis; assay type: functional, organism-based; settings: dose 1-2 µg/ml
Pseudomonas aeruginosa [23] = assay: Antibiofilm activity in Pseudomonas aeruginosa assessed as biofilm eradication measured after 24 hrs by crystal violet staining based analysis; assay type: functional, organism-based; settings: dose 1-2 µg/ml
Pseudomonas aeruginosa [24] = assay: Induction of intracellular ROS generation in Pseudomonas aeruginosa assessed as increase in fluorescence intensity at 2 ug/ml incubated for 6 hrs by DCFH-DA dye based fluorescence analysis; assay type: functional, organism-based; settings: dose 2.0 µg/ml
Pseudomonas aeruginosa [25] = assay: Induction of intracellular ROS generation in Pseudomonas aeruginosa assessed as increase in fluorescence intensity at 2 ug/ml incubated for 6 hrs in presence of N-acetyl-L-cysteine by DCFH-DA dye based fluorescence analysis; assay type: functional, organism-based; settings: dose 2.0 µg/ml
Staphylococcus aureus [26] = assay: Antibacterial activity against methicillin resistant Staphylococcus aureus assessed as reduction in metabolic activity by measuring reduction in fluorescence intensity at 0.5 to 2 times MIC incubated for 6 hrs by alamar blue assay; assay type: functional, organism-based
Pseudomonas aeruginosa [27] = assay: Antibacterial activity against Pseudomonas aeruginosa assessed as reduction in metabolic activity by measuring reduction in fluorescence intensity at 0.5 to 2 times MIC incubated for 6 hrs by alamar blue assay; assay type: functional, organism-based
Calf thymus DNA [28] = assay: Binding affinity to calf thymus DNA assessed as DNA-compound complex formation by measuring increase in absorption of DNA at 260 nm at 0 to 3.3 x 10^-8mol/L by UV absorption spectra based analysis; assay type: nucleic-acid assay; settings: Bos taurus; dose 0-3.3 10^-8mol/L
Calf thymus DNA [29] = assay: Binding affinity to calf thymus DNA assessed as disruption of DNA confirmation by measuring blue shift at 0 to 3.3x10^-8mol/L by UV absorption spectra based analysis; assay type: nucleic-acid assay; settings: Bos taurus; dose 0-3.3 10^-8mol/L
Calf thymus DNA [30] = assay: Binding affinity to calf thymus DNA assessed as DNA-compound complex formation by measuring hyperchromism at 0 to 3.3 x 10^-8mol/L by UV absorption spectra based analysis; assay type: nucleic-acid assay; settings: Bos taurus; dose 0-3.3 10^-8mol/L
Calf thymus DNA [31] = assay: Competitive binding affinity to calf thymus DNA assessed as displacement of neutral red from DNA-neutral red complex by measuring reduction in absorbance at 540 nm at 0 to 2.9x10^-8 mol/L by UV absorption spectroscopy; assay type: nucleic-acid assay; settings: Bos taurus; dose 0-2.9 10^-8mol/L
Escherichia coli [32] = assay: Potency index, ratio of norfloxacin MIC to test compound MIC for antibacterial activity against Escherichia coli ATCC 25922 assessed as inhibition of bacterial growth incubated for 24 hrs; assay type: functional
Escherichia coli [33] = assay: Potency index, ratio of ciprofloxacin MIC to test compound MIC for antibacterial activity against Escherichia coli ATCC 25922 assessed as inhibition of bacterial growth incubated for 24 hrs; assay type: functional

C#CCn1cc(C(=O)O)c(=O)c2cc(F)c(CC#N)cc21
MIC (Staphylococcus aureus [1]): 0.5 µg/mL (≈ 1.76 µM) | MIC (Staphylococcus aureus [2]): 256 µg/mL (≈ 901 µM) | MIC (Staphylococcus aureus [3]): 0.25 µg/mL (≈ 0.88 µM) | MIC (Staphylococcus aureus [4]): 1 µg/mL (≈ 3.52 µM) | MIC (Enterococcus faecalis [5]): 1 µg/mL (≈ 3.52 µM) | MIC (Klebsiella pneumoniae): 2 µg/mL (≈ 7.04 µM) | MIC (Escherichia coli [6]): 1 µg/mL (≈ 3.52 µM) | MIC (Escherichia coli [7]): 0.5 µg/mL (≈ 1.76 µM) | MIC (Pseudomonas aeruginosa [8]): 0.25 µg/mL (≈ 0.88 µM) | MIC (Pseudomonas aeruginosa [9]): 1 µg/mL (≈ 3.52 µM) | MIC (Acinetobacter baumannii): 0.5 µg/mL (≈ 1.76 µM) | MIC (Streptococcus pneumoniae): 32 µg/mL (≈ 113 µM) | MIC (Streptococcus pyogenes): 1 µg/mL (≈ 3.52 µM) | MIC [10]: 4 µg/mL (≈ 14.1 µM) | MIC (Staphylococcus aureus [11]): 4 µg/mL (≈ 14.1 µM) | MIC (Staphylococcus aureus [12]): 16 µg/mL (≈ 56.3 µM) | MIC (Staphylococcus aureus [13]): 2 µg/mL (≈ 7.04 µM) | MIC (Staphylococcus aureus [14]): 2 µg/mL (≈ 7.04 µM) | MIC (Staphylococcus aureus [15]): 4 µg/mL (≈ 14.1 µM) | MIC (Enterococcus faecium): 4 µg/mL (≈ 14.1 µM) | MIC (Enterococcus faecalis [16]): 16 µg/mL (≈ 56.3 µM) | MIC (Enterococcus faecalis [17]): 8 µg/mL (≈ 28.1 µM) | inhibition (INH) (Staphylococcus aureus [18]): ~100% | HC5 (Erythrocyte): > 10000 µg/mL | hemolysis at 1.5 h, 256 ug/ml [19]: < 1% | Activity (Staphylococcus aureus [20]): inactive | Activity (Pseudomonas aeruginosa [21]): inactive | Activity (Staphylococcus aureus [22]): Dose-Dependent Effect | Activity (Pseudomonas aeruginosa [23]): Dose-Dependent Effect | Activity (Pseudomonas aeruginosa [24]): Active | Activity (Pseudomonas aeruginosa [25]): inactive | Activity (Staphylococcus aureus [26]): Active | Activity (Pseudomonas aeruginosa [27]): Active | Activity (Calf thymus DNA [28]): Active | Activity (Calf thymus DNA [29]): Active | Activity (Calf thymus DNA [30]): Active | Activity (Calf thymus DNA [31]): Active

C[C@H]1COc2c(CC(=O)O)c(F)cc3c(=O)c(C(=O)O)cn1c23
MIC (Staphylococcus aureus [1]): 1 µg/mL (≈ 3.11 µM) | MIC (Staphylococcus aureus [2]): 16 µg/mL (≈ 49.8 µM) | MIC (Staphylococcus aureus [3]): 32 µg/mL (≈ 99.6 µM) | MIC (Staphylococcus aureus [4]): 1 µg/mL (≈ 3.11 µM) | MIC (Enterococcus faecalis [5]): 1 µg/mL (≈ 3.11 µM) | MIC (Klebsiella pneumoniae): 8 µg/mL (≈ 24.9 µM) | MIC (Escherichia coli [6]): 0.5 µg/mL (≈ 1.56 µM) | MIC (Escherichia coli [7]): 0.25 µg/mL (≈ 0.778 µM) | MIC (Pseudomonas aeruginosa [8]): 0.5 µg/mL (≈ 1.56 µM) | MIC (Pseudomonas aeruginosa [9]): 0.5 µg/mL (≈ 1.56 µM) | MIC (Acinetobacter baumannii): 1 µg/mL (≈ 3.11 µM) | Ratio (Escherichia coli [32]): 16 | Ratio (Escherichia coli [33]): 2
